Where a name gives a salt, the structure may show the parent alone.
Columns and labels:
[1] = Cell cytotoxicity test: protection of HT22 cells against glutamate toxicity (EC50) and cytotoxicity of the compounds (CC50), MTT; format: cell-based, mouse; conditions: mouse, HT22 cells (mouse hippocampal neuron)
Method: (§1) HT22 cells (mouse hippocampal neuron, Salk Institute and KRIBB) were plated in a 96-well plate at a density of 3×10^3 cells/well for 16 hrs before treatment. The cells were treated with five millimolar glutamate and various concentrations of the inventive compounds and incubated for 24 hrs in a growth media (DMEM with 10% FBS and 1% penicillin streptomycin). Then, the cells were treated with 3-(4,5-dimethylthiazol-2-yl)-2,5-diphenyltetrazolium bromide (MTT, Sigma®) for 4 hrs and absorbance of each well was measured with a plate reader at a wavelength of 450 nm. [Da-Qing, et. al., Anti-oxidant and anti-inflammatory activities of macelignan in murine hippocampal cell line and primary culture of rat microglia cells, BBRC, 2005, 331, 1264-1269].
(§2) In Table 1, EC50 is neuroprotective effect against glutamate toxicity and CC50 is cytotoxicity of the compounds. The EC50 values were statistically analyzed using Prizm® (GraphPad Software Inc., San Diego, Calif., USA).

[2] = tested on: HT22 cells (mouse hippocampal neuron); assay: as above; format: cell-based; conditions: Mus musculus, HT-22, five millimolar glutamate, 24 hrs, read-out: EC50 (neuroprotective effect against glutamate toxicity)
Method: as §1, §2

Structure (SMILES)	CC50 at 24 h [1] [µM]	EC50 [2] [µM]
COc1ccccc1Nc1cc2c(cc1O)[C@]13CCCC[C@@H]1[C@H](C2)NCC3 [Example 42, (+)-3-Hydroxy-2-(2-methoxyphenylamino)morphinan TFA salt]	11.4	0.0959
Oc1ccccc1Nc1cc2c(cc1O)[C@]13CCCC[C@@H]1[C@H](C2)NCC3 [Example 43, (+)-3-Hydroxy-2-(2-hydroxyphenylamino)morphinan TFA salt]	10.4	0.00271
Oc1cccc(Nc2cc3c(cc2O)[C@]24CCCC[C@@H]2[C@H](C3)NCC4)c1 [Example 44, (+)-3-Hydroxy-2-(3-hydroxyphenylamino)morphinan TFA salt]	75	0.802
Oc1ccc(Nc2cc3c(cc2O)[C@]24CCCC[C@@H]2[C@H](C3)NCC4)c(O)c1 [Example 45, (+)-2-(2,4-Dihydroxyphenylamino)-3-hydroxymorphinan TFA salt]	40.9	0.0731
Oc1cc2c(cc1Nc1c(O)cccc1O)C[C@@H]1NCC[C@]23CCCC[C@H]13 [Example 47, (+)-2-(2,6-Dihydroxyphenylamino)-3-hydroxymorphinan TFA salt]	9	0.275
Oc1cc2c(cc1Nc1ccccc1Cl)C[C@@H]1NCC[C@]23CCCC[C@H]13 [Example 48, (+)-2-(2-Chlorophenylamino)-3-hydroxymorphinan TFA salt]	2.7	0.0991
CCc1ccccc1Nc1cc2c(cc1O)[C@]13CCCC[C@@H]1[C@H](C2)NCC3 [Example 49, (+)-2-(2-Ethylphenylamino)-3-hydroxymorphinan TFA salt]	1.1	0.0328
CC(C)c1ccccc1Nc1cc2c(cc1O)[C@]13CCCC[C@@H]1[C@H](C2)NCC3 [Example 50, (+)-3-Hydroxy-2-(2-isopropylphenylamino)morphinan TFA salt]	1	0.043
CC(C)(C)c1ccccc1Nc1cc2c(cc1O)[C@]13CCCC[C@@H]1[C@H](C2)NCC3 [Example 51, (+)-2-(2-t-Butylphenylamino)-3-hydroxymorphinan TFA salt]	1.4	0.036
Oc1cc2c(cc1Nc1ccccc1C(F)(F)F)C[C@@H]1NCC[C@]23CCCC[C@H]13 [Example 52, (+)-3-Hydroxy-2-(2-(trifluoromethyl)phenylamino)morphinan TFA salt]	1.5	0.0249
CCc1ccc(Nc2cc3c(cc2O)[C@]24CCCC[C@@H]2[C@H](C3)NCC4)cc1 [Example 53, (+)-2-(4-Ethylphenylamino)-3-hydroxymorphinan TFA salt]	1.6	0.0402
CC(C)c1ccc(Nc2cc3c(cc2O)[C@]24CCCC[C@@H]2[C@H](C3)NCC4)cc1 [Example 54, (+)-3-Hydroxy-2-(4-isopropylphenylamino)morphinan TFA salt]	1.5	0.0598
Oc1cc2c(cc1Nc1cccc(Cl)c1O)C[C@@H]1NCC[C@]23CCCC[C@H]13 [Example 55, (+)-2-(3-Chloro-2-hydroxyphenylamino)-3-hydroxymorphinan TFA salt]	9.2	0.101
Oc1ccc(F)cc1Nc1cc2c(cc1O)[C@]13CCCC[C@@H]1[C@H](C2)NCC3 [Example 56, (+)-2-(5-Fluoro-2-hydroxyphenylamino)-3-hydroxymorphinan TFA salt]	12.6	0.354
Oc1cc2c(cc1Nc1cccc(F)c1O)C[C@@H]1NCC[C@]23CCCC[C@H]13 [Example 57, (+)-2-(3-Fluoro-2-hydroxyphenylamino)-3-hydroxymorphinan TFA salt]	5.5	0.199
Oc1cc2c(cc1Nc1ccc(OC(F)(F)F)cc1)C[C@@H]1NCC[C@]23CCCC[C@H]13 [Example 58, (+)-3-Hydroxy-2-(4-(trifluoromethoxy)phenylamino)morphinan TFA salt]	1.4	0.131
Oc1cc2c(cc1Nc1ccccc1OC(F)(F)F)C[C@@H]1NCC[C@]23CCCC[C@H]13 [Example 59, (+)-3-Hydroxy-2-(2-(trifluoromethoxy)phenylamino)morphinan TFA salt]	1.7	0.0693
Oc1cc2c(cc1Nc1ccccc1-c1ccccc1)C[C@@H]1NCC[C@]23CCCC[C@H]13 [Example 60, (+)-2-(Biphenyl-2-ylamino)-3-hydroxymorphinan TFA salt]	1.4	0.019
NC(=O)c1ccccc1Nc1cc2c(cc1O)[C@]13CCCC[C@@H]1[C@H](C2)NCC3 [Example 61, (+)-2-(2-Carbamoylphenylamino)-3-hydroxymorphinan TFA salt]	50	1.79
Oc1cc2c(cc1Nc1ccccc1Cc1ccccc1)C[C@@H]1NCC[C@]23CCCC[C@H]13 [Example 62, (+)-2-(2-Benzylphenylamino)-3-hydroxymorphinan TFA salt]	1.6	0.0524

Structure (SMILES)	CC50 at 24 h [1] [µM]	EC50 [2] [µM]
COc1ccc(Nc2cc3c(cc2O)[C@]24CCCC[C@@H]2[C@H](C3)NCC4)cc1OC [Example 63, (+)-2-(3,4-Dimethoxyphenylamino)-3-hydroxymorphinan TFA salt]	10.1	0.0289
Oc1cc2c(cc1Nc1cc(Cl)ccc1Cl)C[C@@H]1NCC[C@]23CCCC[C@H]13 [Example 64, (+)-2-(2,5-Dichlorophenylamino)-3-hydroxymorphinan TFA salt]	1.9	0.464
Oc1cc2c(cc1Nc1ccc(Cl)c(Cl)c1)C[C@@H]1NCC[C@]23CCCC[C@H]13 [Example 65, (+)-2-(3,4-Dichlorophenylamino)-3-hydroxymorphinan TFA salt]	1.6	0.314
Oc1cc2c(cc1Nc1cccc3cccnc13)C[C@@H]1NCC[C@]23CCCC[C@H]13 [Example 66, TFA salt]	2.9	0.0213
Oc1cc2c(cc1Nc1cccc3cnccc13)C[C@@H]1NCC[C@]23CCCC[C@H]13 [Example 67, TFA salt]	12.5	0.107
Oc1cc2c(cc1Nc1ccc3ncccc3c1)C[C@@H]1NCC[C@]23CCCC[C@H]13 [Example 68, TFA salt]	8.5	1.72
Oc1cc2c(cc1Nc1ccc3[nH]ncc3c1)C[C@@H]1NCC[C@]23CCCC[C@H]13 [Example 69, (+)-3-Hydroxy-2-((1H-indazol-5-yl)amino)morphinan TFA salt]	48	1.02
Oc1cc2c(cc1Nc1ccc3c(c1)CCCC3)C[C@@H]1NCC[C@]23CCCC[C@H]13 [Example 71, (+)-3-Hydroxy-24(5,6,7,8-tetrahydronaphthalen-2-ybamino)morphinan TFA salt]	1.6	0.0362
CSc1cc2c(cc1O)[C@]13CCCC[C@@H]1[C@H](C2)NCC3 [Example 72, (+)-3-Hydroxy-2-methylthiomorphinan TFA salt]	77.3	2.21
Oc1cc2c(cc1Sc1ccccc1)C[C@@H]1NCC[C@]23CCCC[C@H]13 [Example 73, (+)-3-Hydroxy-2-phenylthiomorphinan TFA salt]	5.57	1.67
Cc1ccc(-c2cc3c(cc2O)[C@]24CCCC[C@@H]2[C@H](C3)NCC4)cc1 [Example 75, (+)-3-Hydroxy-2-(4-methylphenyl)morphinan TFA salt]	9.4	1.66
Oc1cc2c(cc1-c1ccc(Cl)cc1Cl)C[C@@H]1NCC[C@]23CCCC[C@H]13 [Example 76, (+)-2-(2,4-Dichlorophenyl)-3-hydroxymorphinan TFA salt]	4.4	2.97
Oc1cc2c(cc1-c1ccc(F)cc1)C[C@@H]1NCC[C@]23CCCC[C@H]13 [Example 77, (+)-2-(4-Fluorophenyl)-3-hydroxymorphinan TFA salt]	8.3	3.11
N#Cc1cccc(-c2cc3c(cc2O)[C@]24CCCC[C@@H]2[C@H](C3)NCC4)c1 [Example 78, (+)-2-(3-Cyanophenyl)-3-hydroxymorphinan TFA salt]	21	4.6
Oc1cc2c(cc1-c1ccc(C(F)(F)F)cc1)C[C@@H]1NCC[C@]23CCCC[C@H]13 [Example 79, (+)-3-Hydroxy-2-(4-trifluorophenyl)morphinan TFA salt]	11	6.1
CC(C)Cc1cc2c(cc1O)[C@]13CCCC[C@@H]1[C@H](C2)NCC3 [Example 81, (+)-3-Hydroxy-2-isobutylmorphinan TFA salt]	11.3	1.43
CCCc1cc2c(cc1O)[C@]13CCCC[C@@H]1[C@H](C2)NCC3 [Example 82, (+)-3-Hydroxy-2-propylmorphinan TFA salt]	28.2	1.02
CCCCc1cc2c(cc1O)[C@]13CCCC[C@@H]1[C@H](C2)NCC3 [Example 83, (+)-2-Butyl-3-hydroxymorphinan TFA salt]	51.5	2.07
Oc1cc2c(cc1N1CCOCC1)C[C@@H]1NCC[C@]23CCCC[C@H]13 [Example 86, (+)-3-Hydroxy-2-morpholinomorphinan TFA salt]	> 100	1.55
CC(C)Nc1cc2c(cc1O)[C@]13CCCC[C@@H]1[C@H](C2)NCC3 [Example 87, (+)-3-Hydroxy-2-isopropylaminomorphinan TFA salt]	39.5	0.0354
